# Data as given in patent publication US20230346820A1, “METHODS AND COMPOSITIONS FOR THE TREATMENT OF SARS-COV-2” (priority 2020, published 2023).
# Structures can show the parent of a compound that is named as a salt. Where two headings read alike, the source gives them in different places.
# What was measured:
# SARS-CoV-2 [1] = tested on: SARS-CoV-2
# HeLa-ACE2 cells [2] = tested on: HeLa-ACE2 cells
# SARS-CoV-2 [3] = settings: for EC50: read-out: Calu-3 CoV-2 EC50
# SARS-CoV-2 [4] = assay: Checkerboard synergy study with remdesivir (ZIP model, synergyfinder); assay type: cell-based
# [5] = human, oral; cited from earlier work
# SARS-CoV-2 [6] = assay: microbe, parasite or virus in culture
# in vitro = settings: human
# HeLa-ACE2 cells [7] = assay: cells; assay type: cell-based, human
# [8] = rat, oral; cited from earlier work
# [9] = read-out: HeLa-ACE2 CoV-2 EC50, Table 4, aggregated data, Geomean, n = 3
# [10] = read-out: HeLa-ACE2 Uninfected Tox CC50, Table 4, aggregated data, Geomean, n = 3
# [11] = Table 4, aggregated data, Geomean, n = 3, 48 h
# [12] = read-out: Calu-3 Uninfected Tox CC50, Table 4, aggregated data, Geomean, n = 3
# [13] = Severe acute respiratory syndrome coronavirus 2, HeLa-ACE2, 24 h, read-out: CoV-2 EC50 [μM] (Geomeans, n ≥ 2)
# [14] = Severe acute respiratory syndrome coronavirus 2, HeLa-ACE2, read-out: SARS CoV-2 EC50 (μM)
# [15] = CC50 [μM] (Geomeans, n ≥ 2 except where indicated: *n = 1)
# [16] = Homo sapiens, HeLa-ACE2, read-out: HeLa-ACE-2 EC50 [μM] (Geomeans, n ≥ 2)
# [17] = read-out: HeLa-ACE-2 EC50 [μM] (Geomeans, n ≥ 2)
# [18] = Table 1, ZIP model, δ>10 synergy, δ<−10 antagonism, between additive
# Experimental for Calu-3 cells: To assess cell viability, 2 μL of 50% Cell-Titer Glo (Promega No G7573) diluted in water was added to the cells and luminescence measured on an EnVision Plate Reader (Perkin Elmer).
# Data analysis. […] Primary in vitro screen and the host cell cytotoxicity counter screen data were uploaded to Genedata Screener, Version 16.0.3-Standard. […] For the uninfected host cell cytotoxicity counter screens, 40 μM puromycin (Sigma) was used as the positive (inhibitory) control in HeLa-ACE2, HepG2 and HEK293T cells, and 30 μM puromycin (Sigma) was used as the positive (inhibitory) control for Calu-3 cells. For dose response experiments compounds were tested in technical triplicates on different assay plates and dose curves were fitted with the four parameter Hill Equation. Technical replicate data were analyzed using median condensing. Geometric means and geometric standard deviations are reported for compound activities (EC50s and CC50s) obtained in multiple independent biological experiments. […] Geometric means were calculated by computing the logarithm (base 10) of all values, calculating the mean of these logarithms, and taking the antilog of that mean. Geometric standard deviations were computed by taking the standard deviation of the log-transformed individual values and taking the antilog of that standard deviation. The geometric standard deviation is a unitless ratio and reported as ×÷ instead of +/−.
Molecule,EC50 (SARS-CoV-2 [1]; [9]) [µM],CC50 (HeLa-ACE2 cells [2]; [10]) [µM],Calu3 SI CC50/CoV-2 EC50 (SARS-CoV-2 [3]; Table 4),EC50 (SARS-CoV-2 [3]; [11]) [µM],CC50 (Calu-3 cells; [12]) [µM],HeLa-ACE2 CC50/CoV-2 EC50 (SARS-CoV-2 [1]),Synergy score with remdesivir (δ) (SARS-CoV-2 [4]; Table 3),Cmax [5] [nM],t1/2 [5],EC50 (SARS-CoV-2 [6]; [13]) [µM],CC50 (in vitro; [15]) [µM],CC50 (in vitro; Uninfected HeLa-ACE2 CC50 (μM)) [µM],other results
CCOc1ccc(Cc2nc3cc(N(C)S(=O)(=O)c4cccs4)ccc3n2CC2CCCCC2)nc1 [AZ-11713908],> 9.59,33,>8,3.54,> 29.9,–,–,–,–,–,–,–,–
Cloturin,3.88,31.5,6.62,0.304,2.01,–,–,–,–,–,–,–,HeLa-ACE2 SI CC50/CoV-2 EC50 (SARS-CoV-2 [1]; Table 4): 8.13
CC(=O)OC[C@H]1O[C@@H]([S-])[C@H](OC(C)=O)[C@@H](OC(C)=O)[C@@H]1OC(C)=O.CCP(CC)CC.[Au+] [auranofin],0.988,0.634,7.87,0.525,3.13,–,–,–,–,–,–,–,HeLa-ACE2 SI CC50/CoV-2 EC50 (SARS-CoV-2 [1]; Table 4): 0.64
O=c1[nH]c2ccc(C(F)(F)F)cc2c(-c2cc(Cl)ccc2O)c1CCO [BMS-223131],> 9.59,21.4,>5.8,5.14,> 29.9,–,–,–,–,–,–,–,–
CCCCN(CCCC)CCC(O)c1cc2c(Cl)cc(Cl)cc2c2cc(C(F)(F)F)ccc12 (stereo not drawn) [Halofantrine HCl],–,–,–,–,–,>20.66,−3.509,~1000,"~72 h (human oral)(16, 17)",1.16,> 23.9,> 23.9,EC50 (SARS-CoV-2 [6]; [14]): 1.16 µM
Nc1nc2[nH]cnc2c(=S)[nH]1 [Tioguanine],0.787,2.82,6.45,0.127,–,–,–,–,–,–,–,–,HeLa-ACE2 SI CC50/CoV-2 EC50 (SARS-CoV-2 [1]; Table 4): 3.58; CC50 (Calu-3 cells): 0.822 µM
Antimycin A3,> 9.59,> 39.8,109.64,0.036,3.9,–,–,–,–,–,–,–,–
COc1ccc2c(c1)CN(C)CC2c1ccc(Cl)c(Cl)c1 (stereo not drawn) [diclofensine],–,–,–,–,–,<1.28,–,~30,"~15 h (human, oral)(25)",> 7.89,10.1,> 40,EC50 (HeLa-ACE2 cells [7]; [16]): > 9.59 µM; EC50 (SARS-CoV-2 [6]; [14]): 6.06 µM
CN(C)CCOc1ccc2c(=O)c3ccc(OCCN(C)C)cc3oc2c1 [TILORINE DIHYDROCHLORIDE],–,–,–,–,–,11.07,–,–,–,0.884,–,–,CC50 (HeLa-ACE2 cells [2]; human): 9.79 µM
Cc1nc2c(s1)C(=O)C=C(NCCN(C)C)C2=O [BN-82685],1.53,4.66,5.69,3.05,5.96,–,–,–,–,–,–,–,HeLa-ACE2 SI CC50/CoV-2 EC50 (SARS-CoV-2 [1]; Table 4): 3.04
CC(CN(C)C)CN1c2ccccc2CCc2ccccc21 (stereo not drawn) [Trimipramine],–,–,–,–,–,10.11,–,–,–,2.11,–,–,CC50 (HeLa-ACE2 cells [2]; human): 21.3 µM
Cn1cnc([N+](=O)[O-])c1Sc1ncnc2[nH]cnc12 [Azathioprin],–,–,–,–,–,–,–,–,–,–,–,–,HeLa-ACE2 SI CC50/CoV-2 EC50 (SARS-CoV-2 [1]): 7.67; EC50 (SARS-CoV-2 [1]; read-out: HeLa-ACE2 CoV-2 EC50): 5.08 µM; CC50 (HeLa-ACE2 cells [2]): 39 µM; Calu3 SI CC50/CoV-2 EC50 (SARS-CoV-2 [3]): 7.35; EC50 (SARS-CoV-2 [3]): 0.482 µM; CC50 (Calu-3 cells): 3.55 µM
COC(=O)[C@H]1[C@H]2C[C@@H]3c4[nH]c5cc(OC)ccc5c4CCN3C[C@H]2C[C@@H](OC(=O)c2cc(OC)c(OC)c(OC)c2)[C@@H]1OC [Reserpine],–,–,–,–,–,>6.60,–,–,–,–,–,–,"EC50 (SARS-CoV-2 [1]; read-out: CoV-2 EC50 [μM] (Geomeans, n ≥ 2), Table 1, HeLa-ACE2, 24 h): > 5.51 µM; CC50 (HeLa-ACE2 cells [2]): > 36.4 µM; EC50 (HeLa-ACE2 cells [7]; [17]): > 9.6 µM"
N#Cc1c(N)nc(N)nc1N[C@H](c1nc2c(F)ccc(Cl)c2c(=O)n1-c1cccnc1)C1CC1 [GS-9901],–,–,–,–,–,>8.17,–,–,–,3.81,> 31.1,> 31.1,"Cmax [8]: ~1800 nM; t1/2 [8]: ~2 h (rat, oral)(36)"
Nc1nccc2c1ncn2C1C=C(CO)C(O)C1O (stereo not drawn) [DEAZANEPLANOCINA],> 9.59,7.95,182.24,0.057,10.3,–,–,–,–,–,–,–,–
CN(C)C(C(=O)Nc1ccc2c(=O)[nH]ccc2c1)c1ccsc1 (stereo not drawn) [Verosudil],> 9.59,> 39.8,5.39,3.51,18.9,–,–,–,–,–,–,–,–
Nc1nc(Nc2ccc3c(c2)CC[C@@H](N2CCCC2)CC3)nn1-c1cc2c(nn1)-c1ccccc1CCC2 [BGB324/R-428],–,–,–,–,–,13.05,7.223,~750,"~80 h (oral, humans)(30)",1.2,15.7,–,EC50 (SARS-CoV-2 [6]; [14]): 1.2 µM
Cc1c(O)cccc1C(=O)N[C@@H](CSc1ccccc1)[C@H](O)CN1C[C@H]2CCCC[C@H]2C[C@H]1C(=O)NC(C)(C)C [nelfinavir mesylate],–,–,–,–,–,>2.08,–,~17000,~4 h (human oral)(20),> 8.64,> 18,> 18,Synergy score with remdesivir (δ) (SARS-CoV-2 [4]; [18]): −1.233
"CC(C)(C)Cn1c(N)nc2ccc(-c3[nH]c(C(C)(C)C)nc3-c3ccc(F)cc3)nc21 [Ralimetinib mesylate/LY2228820, Ralimetinib mesylate]",–,–,–,–,–,14.6,−0.846,~5000,"~145 h (human, oral)(28)",1.87,27.4,–,activity in HeLa-ACE2 infection assay (SARS-CoV-2 [1]): active; Synergy score with remdesivir (δ) (SARS-CoV-2 [4]; [18]): −0.846; activity in Calu-3 infection assay (SARS-CoV-2 [3]): active
CCc1ccc2c(c1)N(CC(C)CN(C)C)c1ccccc1S2 (stereo not drawn) [Ethylisobutrazine Hydrochloride],–,–,–,–,–,10.48,–,–,–,2,–,–,CC50 (HeLa-ACE2 cells [2]; human): 20.9 µM
NC1(c2ccc(-c3nc4ccn5c(=O)[nH]nc5c4cc3-c3ccccc3)cc2)CCC1 [MK-2206],–,–,–,–,–,>20.63,2.087,~571,"~75 h (human, oral)(29)",–,–,–,"EC50 (SARS-CoV-2 [1]; read-out: CoV-2 EC50 [μM] (Geomeans, n ≥ 2)): 1.1 µM; EC50 (SARS-CoV-2 [1]; read-out: SARS CoV-2 EC50): 1.1 µM; Synergy score with remdesivir (δ) (SARS-CoV-2 [4]; [18]): 2.087; CC50 (HeLa-ACE2 cells [2]): > 22.8 µM; EC50 (HeLa-ACE2 cells [7]; [17]): > 9.59 µM"
COc1ccc2c(O[C@@H]3C[C@H]4C(=O)N[C@]5(C(=O)NS(=O)(=O)C6CC6)C[C@H]5/C=C\CCCCN(C)C(=O)[C@@H]4C3)cc(-c3nc(C(C)C)cs3)nc2c1C [Simeprevir],–,–,–,–,–,>2.81,–,~32000,"~16 h (human oral)(21, 22)",> 7.88,> 22.2,> 22.2,–
C=CC(=O)Nc1cc(Nc2nccc(-c3cn(C)c4ccccc34)n2)c(OC)cc1N(C)CCN(C)C [Osimertinib],–,–,–,–,–,>18.79,−0.722,~1500,"~42 h (human, oral)(33, 34)",0.962,> 18.1,> 18.1,Synergy score with remdesivir (δ) (SARS-CoV-2 [4]; [18]): −0.722; EC50 (SARS-CoV-2 [6]; [14]): 0.962 µM
CC(C)Oc1ccc(-c2nc(-c3cccc4c3CC[C@@H]4NCCO)no2)cc1C#N [Ozanimod],–,–,–,–,–,>5.60,−4.62,~1200,"~21 h (human, oral)(24)",2.63,> 14.7,> 14.7,EC50 (SARS-CoV-2 [6]; [14]): 2.63 µM
Nc1cc(OCC2CC2)c(C(=O)NC2CN3CCC2CC3)cc1Cl (stereo not drawn) [Pancopride],–,–,–,–,–,4.32,0.65,~300,"~16 h (human, oral)(26)",> 8.64,> 37.3,> 37.3,Synergy score with remdesivir (δ) (SARS-CoV-2 [4]; [18]): 0.648; EC50 (HeLa-ACE2 cells [7]; [16]): > 9.59 µM; EC50 (SARS-CoV-2 [6]; [14]): > 8.64 µM
CSc1ncnc2c1ncn2[C@@H]1O[C@H](CO)[C@@H](O)[C@H]1O [6-Methyl mercaptopurineriboside],3.6,15.4,5.80,0.207,1.2,–,–,–,–,–,–,–,HeLa-ACE2 SI CC50/CoV-2 EC50 (SARS-CoV-2 [1]; Table 4): 4.27
Oc1ccc(Nc2ccnc3cc(Cl)ccc23)cc1CN1CCCC1 [AMOPYROQUINE],–,–,–,–,–,19.02,–,–,–,0.904,–,–,CC50 (HeLa-ACE2 cells [2]; human): 17.2 µM
COC1(c2cc(F)cc(OCc3ccc4c(ccc(=O)n4C)c3)c2)CCOCC1 [ZD 2138],> 9.59,28.7,5.18,2.79,14.4,–,–,–,–,–,–,–,–
COC(=O)C1=C(C)NC(C)=C(C(=O)OC)C1c1cc([N+](=O)[O-])ccc1OCCCCNC[C@H](O)COc1ccccc1 [YM 161514],–,–,–,–,–,6.08,0.60,–,–,1.86,11.3,11.3,Synergy score with remdesivir (δ) (SARS-CoV-2 [4]; [18]): 0.601; EC50 (HeLa-ACE2 cells [7]; [16]): > 8.47 µM; EC50 (SARS-CoV-2 [6]; [14]): 1.86 µM
COC(=O)C1=C(C)NC(C)=C(C(=O)OCCN2CCN(C(c3ccccc3)c3ccccc3)CC2)C1c1cccc([N+](=O)[O-])c1 (stereo not drawn) [manidipine],–,–,–,–,–,>2.48,−4.727,~10,"~3 h (human, oral)(23)",> 6.89,> 17.1,> 17.1,Synergy score with remdesivir (δ) (SARS-CoV-2 [4]; [18]): −4.727; EC50 (SARS-CoV-2 [6]; [14]): > 6.89 µM
